Reference: patent US20050048508A1, “Trehalose receptor and method for detecting trehalose with the same” (KABUSHIKI KAISHA HAYASHIBARA SEIBUTSU KAGAKU KENKYUJO, priority 2002, published 2005)

Tests used:
[1] = system: G protein α-subunits (α15 and α16/Z chimeric protein), no sweet taste receptor; assay: Intracellular calcium ion assay, 293 cells expressing G protein α-subunits without sweet taste receptor; type: cell-based, Mouse, Human; details: 293 cells: G protein α-subunits only, no T1R1/T1R2/T1R3; 0.67 ml of 1 M saccharide solution added to 2 ml cell suspension
Procedure: (§1) The coexpression vector for the G protein α-subunit α15 and the G protein α16/Z chimeric protein (hereinafter designated as “G protein α-subunits”) obtained in Example 1-3 was gene transferred to 293 cells, RCB 1637, a human embryonic kidney cell line, available from the Riken Bioresource Center, Ibaraki, Japan, by conventional lipofection. The gene transferred cells were suspended in Dulbecco's Modified Eagle's Medium (D-MEM) supplemented with 1 mg/L of “PUROMYCIN”, a trade mane of puromycin commercialized by Edge Biosystems, MD, USA, and 10% (v/v) of fetal calf serum to give a cell density of 2×10^6 cells/ml and cultured in a plastic petri dish for cell culture. […]
(§2) The captioned reactivity test was conducted according to a conventional intracellular calcium ion assay: 293 Cells prepared in Example 3, capable of coexpressing the G protein α-subunits and the sweet taste receptor(s), were cultured in a plastic petri dish for cell culture until reaching its confluent phase. […] Two milliliters of the resultant cell suspension was injected into a glass cuvette, commercialized by Hitachi, Ltd., Tokyo, Japan, and analyzed on “HITACHI 650-40”, a fluorescence spectrophotometer commercialized by Hitachi, Ltd., Tokyo, Japan. […]

[2] = target: T1, T1R2 with G protein α-subunits (α15 and α16/Z chimeric protein) (Mus musculus, UniProt Q925I4, E350G/G527D/P352R/R175Q); assay: Intracellular calcium ion assay, 293 cells coexpressing G protein α-subunits and T1R2; type: cell-based; details: 293 cells: T1R2 + G protein α-subunits; 0.67 ml of 1 M saccharide solution added to 2 ml cell suspension; FLUO-4 AM
T1 construct: expressed in transfected cells; host or cells: 293 cells, RCB 1637 (human embryonic kidney)
T1 sequence (Q925I4 20-843 R175Q/E350G/P352R/G527D): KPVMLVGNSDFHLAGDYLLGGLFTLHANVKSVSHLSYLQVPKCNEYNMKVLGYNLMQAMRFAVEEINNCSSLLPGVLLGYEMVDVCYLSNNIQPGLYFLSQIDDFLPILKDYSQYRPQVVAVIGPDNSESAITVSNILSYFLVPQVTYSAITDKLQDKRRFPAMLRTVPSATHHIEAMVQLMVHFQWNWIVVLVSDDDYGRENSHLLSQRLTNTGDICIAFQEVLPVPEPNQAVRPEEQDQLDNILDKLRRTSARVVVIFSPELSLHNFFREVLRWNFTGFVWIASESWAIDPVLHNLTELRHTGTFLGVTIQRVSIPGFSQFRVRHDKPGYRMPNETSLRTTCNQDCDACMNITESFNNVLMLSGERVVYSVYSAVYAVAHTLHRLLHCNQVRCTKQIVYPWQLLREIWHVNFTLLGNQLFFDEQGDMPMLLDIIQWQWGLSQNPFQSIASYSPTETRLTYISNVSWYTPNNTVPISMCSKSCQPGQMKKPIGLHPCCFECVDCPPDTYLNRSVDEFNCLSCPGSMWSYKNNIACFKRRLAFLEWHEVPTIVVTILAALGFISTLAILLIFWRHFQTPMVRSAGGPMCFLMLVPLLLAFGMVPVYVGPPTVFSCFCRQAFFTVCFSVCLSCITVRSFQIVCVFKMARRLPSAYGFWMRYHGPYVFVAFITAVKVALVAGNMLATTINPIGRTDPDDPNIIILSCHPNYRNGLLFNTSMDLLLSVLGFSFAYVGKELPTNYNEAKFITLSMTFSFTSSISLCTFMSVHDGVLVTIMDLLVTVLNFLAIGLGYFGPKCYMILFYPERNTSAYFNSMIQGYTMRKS
Procedure: as §1, §2

SMILES	Influx of calcium ion [1]	Influx of calcium ion [2]
OC[C@H]1O[C@@](CO)(O[C@H]2O[C@H](CO)[C@@H](O)[C@H](O)[C@H]2O)[C@@H](O)[C@@H]1O [Sucrose, reference compound]	Negative	Negative
OC[C@H]1O[C@H](O[C@H]2O[C@H](CO)[C@@H](O)[C@H](O)[C@H]2O)[C@H](O)[C@@H](O)[C@@H]1O [Trehalose]	Negative	Negative
